The record followed here is ChEMBL document CHEMBL5126541, “Recent applications of vinyl sulfone motif in drug design and discovery” (Eur J Med Chem, 2022).

Data set [1] relates to Fusarium solani. The data set can be described thus: Antifungal activity against Fusarium solani assessed as zone of inhibition. It counts as functional.
For data set [2], the system named is Curvularia lunata. The data set can be described thus: Antifungal activity against Cochliobolus lunatus assessed as zone of inhibition. It is filed as functional.
Data set [3] deals with Aspergillus niger. Description: Antifungal activity against Aspergillus niger assessed as zone of inhibition. It counts as functional.
Data set [4] concerns MDA-MB-231. The data set can be described thus: Anticancer activity against human MDA-MB-231 cells. It counts as functional, cell-based.
In data set [5] the target is Telomerase reverse transcriptase (Homo sapiens, UniProt O14746). The data set can be described thus: Inhibition of telomerase (unknown origin).
In data set [6] the test system is A-375. The data set can be described thus: Anticancer activity against human A-375 cells. It is filed as functional, cell-based.
For data set [7], the system named is HeLa. Description: Cytotoxicity against human HeLa cells. The following applies: pooled result: one value given for 5 cell lines, strains, targets or settings. It counts as functional, cell-based.
The species named for data set [8] is Homo sapiens. The data set can be described thus: Inhibition of PI3K (unknown origin) at 20 uM relative to control.
Data set [9] relates to SARS-CoV. The data set can be described thus: Antiviral activity against SARS-CoV Live SARS-CoV assay and cytotoxicity assessed as reduction in viral cytopathic effect. It is filed as functional, organism-based. The following applies: Severe acute respiratory syndrome-related coronavirus. For orientation: Protection from cytopathic effect is a common read-out in antiviral testing.

The subject of data set [10] is Ebolavirus. Description: Antiviral activity against Ebola virus pseudotyped infected in HEK293T cells assessed as reduction in viral cytopathic effect. It counts as functional, organism-based. The following applies: Orthoebolavirus, HEK-293T.
In data set [11] the test system is HUVEC. Description: Antitubulin activity against HUVEC assessed as morphological changes of tube incubated for 6 hrs by inverted microscope. It is filed as functional, cell-based. The settings on record: Homo sapiens.
Data set [12] relates to Klebsiella pneumoniae. Description: Antimicrobial activity against Klebsiella pneumoniae assessed as zone of inhibition. It counts as functional.
In data set [13] the test system is Bacillus subtilis. The data set can be described thus: Antimicrobial activity against Bacillus subtilis assessed as zone of inhibition at 100 uM. It counts as functional.
Data set [14] deals with Escherichia coli. Description: Antimicrobial activity against Escherichia coli assessed as zone of inhibition. It is filed as functional.
The test system of data set [15] is Staphylococcus aureus. Description: Antimicrobial activity against Staphylococcus aureus assessed as zone of inhibition at 100 uM. It counts as functional.
Data set [16] has as its system PC-12. Description: Neuroprotection against H2O2-induced cell injury in rat PC-12 cells assessed as cell viability preincubated for 3 hrs followed by H2O2 addition measured after 5 hrs by MTT assay. The following applies: time 8 hrs. It counts as functional.
The test system of data set [17] is ES-2. Description: Cytotoxicity against human ES2 cells incubated for 48 hrs by MTT assay. It is filed as functional, cell-based. The following applies: ES-2, 48 h. A general note: Formazan colour is commonly taken as a measure of viable cells.
The nature of data set [18]: Cytotoxicity against HBMSC cells incubated for 48 hrs by MTT assay. It counts as toxicity, cell-based. The settings on record: human.
The nature of data set [19]: Cytotoxicity against human HO-8910 cells incubated for 48 hrs by MTT assay. It is filed as functional, cell-based. The settings on record: HO-8910, 48 h.
The test system of data set [20] is K562. The data set can be described thus: Cytotoxicity against human K562 cells incubated for 48 hrs by MTT assay. It counts as functional, cell-based. The settings on record: K562, 48 h.
Data set [21] deals with T1, Cholinesterase (Homo sapiens, UniProt P06276). The data set can be described thus: Inhibition of human serum BuChE preincubated for 5 mins followed by BuCh addition measured after 5 mins by Ellman's method. For orientation: DTNB colorimetry detects thiols as they appear.
Data set [22] deals with Cholinesterase (Equus caballus, UniProt P81908). Description: Inhibition of horse serum BuChE preincubated for 5 mins followed by BuCh addition measured after 5 mins by Ellman's method.
The target of data set [23] is Acetylcholinesterase (Homo sapiens, UniProt P22303). Description: Inhibition of AChE (unknown origin) preincubated for 5 mins followed by […] measured after 5 mins by Ellman's method.
Data set [24] addresses T1, Cholinesterase. The data set can be described thus: Binding affinity to BuChE (unknown origin) assessed as inhibition constant.
In data set [25] the test system is Human alphaherpesvirus 3. Description: Antiviral activity against VZV strain Oka bearing wild type thymidine kinase assessed as reduction in virus induced cytopathogenicity. It is filed as functional, organism-based.
Data set [26] concerns OVCAR-3. Description: Cytotoxicity against human OVCAR-3 cells assessed as reduction in cell viability. It is filed as functional, cell-based.
Data set [27] can be described thus: Cytotoxicity against human SB2 cells assessed as reduction in cell viability. It is filed as functional, cell-based.
The test system of data set [28] is HT-29. Description: Cytotoxicity against human HT-29 cells assessed as reduction in cell viability. It counts as functional, cell-based.
The subject of data set [29] is SK-OV-3. Description: Cytotoxicity against human SK-OV-3 cells assessed as reduction in cell viability. It is filed as functional, cell-based.
The test system of data set [30] is PC-3. The data set can be described thus: Cytotoxicity against human PC-3 cells assessed as reduction in cell viability. It is filed as functional, cell-based.
Data set [31] relates to MeWo. The data set can be described thus: Cytotoxicity against human MeWo cells assessed as reduction in cell viability. It is filed as functional, cell-based.
Data set [32] relates to L1210. Description: Antiproliferative activity against mouse L1210 cells treated for 48 hrs. It counts as functional, cell-based. The following applies: L1210, 48 h.
Data set [33] relates to HeLa. The data set can be described thus: Antiproliferative activity against human HeLa cells treated for 4 days. It counts as functional, cell-based. The settings on record: 96 h.
In data set [34] the test system is CCRF-CEM. The data set can be described thus: Antiproliferative activity against human CEM cells treated for 96 hrs. It is filed as functional, cell-based.
Data set [35] deals with BV-2. The data set can be described thus: Anti-infalmmatory activity in LPS-induced NO production in mouse BV-2 microglial cells preincubated for 3 hrs followed by LPS addition measured after 24 hrs by NO assay kit. It is filed as functional, cell-based.
Data set [36] can be described thus: Permeability across blood brain barrier assessed as central nervous system multi-parameter optimization score. It is filed as ADME, tissue-based.
A short description of data set [37]: Permeability of the compound across blood brain barrier by PAMPA. The settings on record: read-out: logBB (converted). It counts as ADME, tissue-based.
The test system of data set [38] is A549. Description: Cytotoxicity against human A549 cells expressing EGFR incubated for 72 hrs by MTT assay. It counts as functional, cell-based. The following applies: A549, 72 h.
Data set [39] has as its system NCI-H1975. Description: Cytotoxicity against human NCI-H1975 cells expressing EGFR T790 mutant incubated for 72 hrs by MTT assay. It is filed as functional, cell-based. The settings on record: NCI-H1975, 72 h.
Data set [40] concerns A-431. The data set can be described thus: Cytotoxicity against human A431 cells expressing EGFR incubated for 72 hrs by MTT assay. It counts as functional, cell-based. The settings on record: A-431, 72 h.

Usually IC50 stands for the point on the concentration scale where inhibition reaches its midpoint. Usually inhibition stands for the percentage by which the read-out fell short of the control. The low end stands for a response near the control, the high end for a response far below the control. By Ki is commonly meant the dissociation constant of the complex between target and ligand, obtained from inhibition or displacement. As usually defined, the EC50 is the midpoint of the concentration-response curve.

Telomerase reverse transcriptase, sequence (O14746 whole entry): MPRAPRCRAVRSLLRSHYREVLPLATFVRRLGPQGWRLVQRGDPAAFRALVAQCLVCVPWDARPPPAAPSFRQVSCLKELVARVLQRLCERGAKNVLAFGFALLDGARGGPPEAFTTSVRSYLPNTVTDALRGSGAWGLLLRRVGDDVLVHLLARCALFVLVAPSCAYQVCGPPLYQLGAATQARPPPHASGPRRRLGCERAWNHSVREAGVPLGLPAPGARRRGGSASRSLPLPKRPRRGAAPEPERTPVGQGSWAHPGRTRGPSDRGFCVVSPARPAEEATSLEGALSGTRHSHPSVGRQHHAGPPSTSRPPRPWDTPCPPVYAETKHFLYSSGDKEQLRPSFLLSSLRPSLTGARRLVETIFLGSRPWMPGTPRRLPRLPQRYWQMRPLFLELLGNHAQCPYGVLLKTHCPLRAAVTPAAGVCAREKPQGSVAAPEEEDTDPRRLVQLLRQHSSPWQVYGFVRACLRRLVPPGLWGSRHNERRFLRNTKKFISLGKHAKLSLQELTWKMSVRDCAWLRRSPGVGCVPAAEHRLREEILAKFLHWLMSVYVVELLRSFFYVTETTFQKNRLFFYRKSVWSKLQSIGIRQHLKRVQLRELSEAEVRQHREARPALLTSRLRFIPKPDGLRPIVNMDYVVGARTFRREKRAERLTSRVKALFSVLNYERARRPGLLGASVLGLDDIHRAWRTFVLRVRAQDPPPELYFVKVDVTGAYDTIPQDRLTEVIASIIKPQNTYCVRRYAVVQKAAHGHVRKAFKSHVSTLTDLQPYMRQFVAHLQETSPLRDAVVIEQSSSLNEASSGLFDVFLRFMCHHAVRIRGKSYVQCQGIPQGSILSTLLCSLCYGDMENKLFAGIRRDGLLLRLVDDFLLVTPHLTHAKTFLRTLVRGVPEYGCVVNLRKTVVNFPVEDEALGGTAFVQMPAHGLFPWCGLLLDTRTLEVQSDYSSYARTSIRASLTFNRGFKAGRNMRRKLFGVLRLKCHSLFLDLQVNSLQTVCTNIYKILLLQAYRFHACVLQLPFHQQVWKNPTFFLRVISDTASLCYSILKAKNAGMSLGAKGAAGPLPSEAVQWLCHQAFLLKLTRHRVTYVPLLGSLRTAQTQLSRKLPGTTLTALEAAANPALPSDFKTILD
T1 sequence (P06276 whole entry): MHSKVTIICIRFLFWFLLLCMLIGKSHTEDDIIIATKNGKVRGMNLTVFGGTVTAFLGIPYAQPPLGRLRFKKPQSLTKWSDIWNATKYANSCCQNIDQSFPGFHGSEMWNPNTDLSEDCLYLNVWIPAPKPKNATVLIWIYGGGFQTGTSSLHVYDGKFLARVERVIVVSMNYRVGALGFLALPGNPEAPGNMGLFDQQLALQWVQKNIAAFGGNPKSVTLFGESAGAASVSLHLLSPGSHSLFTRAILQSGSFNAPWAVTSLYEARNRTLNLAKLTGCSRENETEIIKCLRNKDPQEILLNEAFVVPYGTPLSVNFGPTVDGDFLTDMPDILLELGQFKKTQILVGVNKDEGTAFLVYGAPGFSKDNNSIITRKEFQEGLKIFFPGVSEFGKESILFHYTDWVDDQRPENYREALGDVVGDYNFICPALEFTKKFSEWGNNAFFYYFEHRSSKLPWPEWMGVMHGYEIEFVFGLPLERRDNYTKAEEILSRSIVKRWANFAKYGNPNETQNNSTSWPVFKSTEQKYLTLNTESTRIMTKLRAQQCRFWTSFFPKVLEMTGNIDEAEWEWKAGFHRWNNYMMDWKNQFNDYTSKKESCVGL
Cholinesterase (Equus caballus, UniProt P81908), sequence (P81908 whole entry): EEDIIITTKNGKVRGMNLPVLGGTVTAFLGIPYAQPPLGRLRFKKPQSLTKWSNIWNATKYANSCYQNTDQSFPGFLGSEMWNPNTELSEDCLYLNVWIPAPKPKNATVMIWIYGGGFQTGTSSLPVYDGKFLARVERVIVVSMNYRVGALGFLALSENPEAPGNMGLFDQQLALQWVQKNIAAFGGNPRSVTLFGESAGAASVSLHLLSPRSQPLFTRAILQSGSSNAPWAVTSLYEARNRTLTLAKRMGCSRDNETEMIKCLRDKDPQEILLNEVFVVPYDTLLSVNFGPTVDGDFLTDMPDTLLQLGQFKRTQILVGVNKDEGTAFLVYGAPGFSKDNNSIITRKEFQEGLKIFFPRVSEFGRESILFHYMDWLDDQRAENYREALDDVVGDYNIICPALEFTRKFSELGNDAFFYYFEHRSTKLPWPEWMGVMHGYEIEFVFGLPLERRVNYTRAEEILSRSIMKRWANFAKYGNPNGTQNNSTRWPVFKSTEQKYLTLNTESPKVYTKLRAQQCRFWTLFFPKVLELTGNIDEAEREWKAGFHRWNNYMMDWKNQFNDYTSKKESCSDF
Acetylcholinesterase, sequence (P22303 whole entry): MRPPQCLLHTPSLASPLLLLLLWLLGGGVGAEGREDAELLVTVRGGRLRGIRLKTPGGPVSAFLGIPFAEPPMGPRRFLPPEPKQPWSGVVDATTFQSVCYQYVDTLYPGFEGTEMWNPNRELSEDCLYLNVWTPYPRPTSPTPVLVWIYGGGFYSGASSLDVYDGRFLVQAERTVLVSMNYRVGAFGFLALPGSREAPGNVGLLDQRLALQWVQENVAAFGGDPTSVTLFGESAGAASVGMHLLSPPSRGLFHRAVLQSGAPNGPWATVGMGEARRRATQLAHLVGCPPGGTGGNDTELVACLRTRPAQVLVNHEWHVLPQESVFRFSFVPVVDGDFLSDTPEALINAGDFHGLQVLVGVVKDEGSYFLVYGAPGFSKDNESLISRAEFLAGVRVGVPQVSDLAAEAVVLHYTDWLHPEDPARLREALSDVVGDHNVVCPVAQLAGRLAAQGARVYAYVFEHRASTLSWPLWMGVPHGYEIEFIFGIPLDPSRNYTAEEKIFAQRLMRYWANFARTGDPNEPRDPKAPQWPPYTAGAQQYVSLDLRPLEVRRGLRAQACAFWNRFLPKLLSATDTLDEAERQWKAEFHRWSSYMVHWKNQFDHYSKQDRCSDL

`CC(=O)N1CCN(c2ccc(OCC3COC(Cn4ccnc4)(c4ccc(Cl)cc4Cl)O3)cc2)CC1` (centres undefined) [KETOCONAZOLE]: the Activity in [1], in data set [2] and in [3] was greater than 36 mm throughout.

Take `O=S(=O)(F)/C=C/C=C/c1ccc(/C=C/S(=O)(=O)F)cc1`: the IC50 in [4] is 3220 nM; in data set [5] it was less than 1000 nM; in data set [6] it was 1580 nM.

In the case of `O=c1oc2ccc(Br)cc2cc1S(=O)(=O)Cc1ccc(F)cc1`, 29300 nM corresponded to half-maximal inhibition in data set [7] (IC50). This compound also yielded an inhibition in data set [8] of 50%.

For the compound `CC(C)(C)N1CCN(C(=O)N[C@@H](Cc2ccccc2)C(=O)N[C@H](/C=C/S(=O)(=O)c2ccccc2)CCc2ccccc2)CC1`, the IC50 in data set [9] and in [10] was 0.04 nM throughout.

Consider `COc1ccc(/C=C/S(=O)(=O)c2cc(OC)c(OC)c(OC)c2)cc1N`, for which the IC50 in data set [11] was 4250 nM.

`O=C(c1ccc(Cl)cc1)c1c[nH]cc1S(=O)(=O)c1c(-c2ccc(Cl)cc2)noc1-c1ccccc1`: the Activity in data set [1] was greater than 26 mm; in [12], greater than 20 mm; in data set [2] it was greater than 26 mm; in [13], greater than 25 mm; in data set [14], greater than 20 mm; in data set [15] it was greater than 25 mm. Also, in [3], the Activity is on record as greater than 26 mm.

With `O=S(=O)(/C=C/c1ccc(O)c(O)c1)CCCc1ccccc1`, the Activity in data set [16] was determined as 94.5%.

With `CC(=O)c1ccc(/C(=C\C(F)(F)F)S(=O)(=O)c2ccccc2)cc1`, the IC50 was 400 nM in data set [17], 400 nM in data set [19] and 200 nM in [20]. The midpoint of inhibition in data set [18], the IC50 at 48 h, lay at 200 nM.

With `CCN1CCN(C(=O)N[C@@H](Cc2ccccc2)C(=O)N[C@H](/C=C/S(=O)(=O)c2ccccc2)CCc2ccccc2)CC1`, the IC50 in [9] and in [10] was 0.04 nM in each case.

`O=C(N[C@H](CO)[C@H](O)c1ccc([N+](=O)[O-])cc1)C(Cl)Cl` [CHLORAMPHENICOL]: the Activity in data set [12] and in data set [14] was greater than 35 mm in each case.

Turning to `COc1ccccc1/C=C/C=C(\Br)S(=O)(=O)F`, the IC50 is 3620 nM in data set [21], 21 nM in [22] and 79 nM in [23]. In addition, the Ki in data set [24] worked out at 29 nM.

Take `O=c1[nH]c(=O)n([C@H]2C[C@H](O)[C@@H](CO)O2)cc1/C=C/Br` [BRIVUDINE]: the concentration giving a half-maximal response (EC50) in data set [25] came out at 20 nM.

On to `O=C(c1ccc(Cl)cc1)c1c[nH]cc1S(=O)(=O)c1n[nH]cc1-c1ccccc1`, for which the Activity in [1] is greater than 26 mm; in data set [12], greater than 20 mm; in data set [2] it was greater than 26 mm; in data set [13] it was greater than 25 mm; in data set [14], greater than 20 mm; in data set [15] it was greater than 25 mm. In data set [3], the Activity was greater than 26 mm.

As to `O=C(N[C@H](/C=C/S(=O)(=O)c1ccccc1)CCc1ccccc1)[C@H](Cc1ccccc1)NC(=O)N1CCN(c2ccccc2)CC1`, the IC50 in data set [9] and in data set [10] was 0.04 nM in each case.

In the case of `COCCN1CCN(C(=O)N[C@@H](Cc2ccccc2)C(=O)N[C@H](/C=C/S(=O)(=O)c2ccccc2)CCc2ccccc2)CC1`, the half-maximal inhibitory concentration (IC50) in [9] and in data set [10] was 0.04 nM in each case.

Consider `C=C(CCCCCCCCCCCCCCCC)S(=O)(=O)CCC[N+](C)(C)C`, for which the IC50 in [26], in data set [27], in data set [28], in data set [29], in data set [30] and in [31] was 390 nM in each case.

`CC(=O)OC[C@H]1O[C@@H](n2cc(/C(Cl)=C\S(=O)(=O)c3ccc(C)cc3)c(=O)[nH]c2=O)C[C@@H]1OC(C)=O`: the 50% effective concentration (EC50) in data set [25] was found to be 4000 nM. The IC50 in [32] was 5600 nM; in [33], 23000 nM; in data set [34], 11000 nM.

Regarding `CCCN1CCN(C(=O)N[C@@H](Cc2ccccc2)C(=O)N[C@H](/C=C/S(=O)(=O)c2ccccc2)CCc2ccccc2)CC1`, the IC50 in data set [9] and in data set [10] was 0.04 nM each time.

On to `CN1CCN(C(=O)N[C@@H](Cc2ccccc2)C(=O)N[C@H](/C=C/S(=O)(=O)c2ccccc2)CCc2ccccc2)CC1` [K-777], for which the half-inhibitory concentration (IC50) in data set [10] was 0.36 nM.

Consider `O=S(=O)(/C=C/c1ccc(O)c(O)c1)CCCC1CCCC1`, for which half-maximal inhibition in data set [35] (IC50) required 1600 nM. Also, in data set [36], the Activity is 4.36. In data set [37], the Kp is 0.316.

For the compound `COc1cc(OC)c(/C=C/S(=O)(=O)Cc2ccc(OC)c(NCC(=O)O)c2)c(OC)c1` [RIGOSERTIB SODIUM], it took 10 nM to reach half-maximal inhibition in [7] (IC50).

As to `CC(C)N1CCN(C(=O)N[C@@H](Cc2ccccc2)C(=O)N[C@H](/C=C/S(=O)(=O)c2ccccc2)CCc2ccccc2)CC1`, the IC50 in data set [9] and in [10] was 0.04 nM throughout.

For `O=S(=O)(F)/C=C/c1ccc2ccccc2c1`, the IC50 in data set [5] is less than 1000 nM.

In turn, `O=S(=O)(F)/C=C/c1ccc(-c2ccccc2)cc1` had an IC50 in data set [5] of less than 1000 nM.

With `COc1cc(/C=C/S(=O)(=O)c2ccccc2)cc(OC)c1OC`, the 50% inhibitory concentration (IC50) in data set [38] came out at 54600 nM; in [39], 30400 nM; in [40], 33500 nM.

For the compound `O=c1oc2ccc([N+](=O)[O-])cc2cc1S(=O)(=O)Cc1ccc(F)cc1`, 18100 nM corresponded to half-maximal inhibition in data set [7] (IC50). For the same compound, in data set [8], the inhibition was determined as 50%.
